According to patent US20160355483A1, “COMPOUND BINDING TO PPARG BUT NOT ACTING AS PROMOTER AND PHARMACEUTICAL COMPOSITION FOR TREATING PPARG-RELATED DISEASES CONTAINING SAME AS ACTIVE INGREDIENT” (Hyundai Pharm Co., Ltd., priority 2014, published 2016):

The compounds below were run against T1, PPARG (peroxisome proliferator activated receptor-gamma), GST-PPARG-LBD (Homo sapiens, UniProt P37231) (assay: LanthaScreen TR-FRET PPARG Competitive Binding Assay). Details: degree of binding activity.
T1 construct: 15 μL of 5 nM GST-PPARG-LBD and 5 nM Tb-GST-antibody were added; purchased Invitrogen PV4894
T1 sequence (P37231 238-503 limits assumed): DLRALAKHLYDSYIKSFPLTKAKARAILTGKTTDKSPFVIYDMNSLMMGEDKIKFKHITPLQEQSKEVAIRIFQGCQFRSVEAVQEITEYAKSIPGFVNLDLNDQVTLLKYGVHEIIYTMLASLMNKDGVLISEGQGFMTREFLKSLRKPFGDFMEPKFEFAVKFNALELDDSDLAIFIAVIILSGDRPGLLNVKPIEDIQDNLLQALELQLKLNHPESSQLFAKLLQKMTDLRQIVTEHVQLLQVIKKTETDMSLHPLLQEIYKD
Design: key: “+” indicates the degree of the binding activity, and as the number of “+” increases, the binding activity is stronger; ++: “+” indicates the degree of the binding activity, and as the number of “+” increases, the binding activity is stronger; +++: “+” indicates the degree of the binding activity, and as the number of “+” increases, the binding activity is stronger; ++++: “+” indicates the degree of the binding activity, and as the number of “+” increases, the binding activity is stronger
Summary of the method: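 Ratio of 518 nm to 488 nm time-resolved emission after a 1 h room-temperature incubation, in competition format with GST-PPARG ligand-binding domain. Values are expressed as 100% minus compound-to-vehicle ratio and related to rosiglitazone binding.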

Which “Binding assay (1 μLM)” value does the source give for `C[C@H](NC(=O)c1ccc2c(c1)CCCN2Cc1cccc(-c2ccccc2C(N)=O)c1)c1ccc2ccccc2c1` [Example 124, (S)-1-((2′-carbamoyl-[1,1′-biphenyl]-3-yl)methyl)-N-(1-(naphthalene-2-yl)ethyl)-1,2,3,4-tetrahydroquinoline-6-carboxamide] here?
Its value is “++++”.

For `Cc1cc(F)ccc1[C@H](C)NC(=O)c1ccc2c(c1)CCCN2Cc1ccc(-c2ccccc2C(=O)O)cc1` [Example 4, (S)-4′-((6-((1-(4-fluoro-2-methylphenyl)ethyl)carbamoyl)-3,4-dihydroquinoline-1(2H)-yl)methyl)-[1,1′-biphenyl]-2-carboxylic acid], which “Binding assay (1 μLM)” value is on record?
The value was “+++”.

For `C[C@H](NC(=O)c1ccc2c(c1)CCCN2Cc1ccc(-c2ccccc2C(N)=O)cc1)c1cccc(F)c1` [Example 45, (S)-1-((2′-carbamoyl-[1,1′-biphenyl]-4-yl)methyl)-N-(1-(3-fluorophenyl)ethyl)-1,2,3,4-tetrahydroquinoline-6-carboxamide], which “Binding assay (1 μLM)” value is on record?
The value was “+++”.

Which “Binding assay (1 μLM)” value does the source give for `C[C@H](NC(=O)c1ccc2c(c1)CCCN2Cc1cccc(-c2ccccc2C(=O)O)c1)c1ccc([N+](=O)[O-])cc1` [Example 119, (S)-3′-((6-((1-(4-nitrophenyl)ethyl)carbamoyl)-3,4-dihydroquinoline-1(2H)-yl)methyl)-[1,1′-biphenyl]-2-carboxylic acid] here?
Its value is “++”.

For `C[C@H](NC(=O)c1ccc2c(c1)CCCN2Cc1ccc(-c2ccccc2C(N)=O)cc1)c1ccc(F)c(F)c1` [Example 39, (S)-1-((2′-carbamoyl-[1,1′-biphenyl]-4-yl)methyl)-N-(1-(3,4-difluorophenyl)ethyl)-1,2,3,4-tetrahydroquinoline-6-carboxamide], which “Binding assay (1 μLM)” value is on record?
Its value is “+++”.

With `O=C(NCc1cccnc1)c1ccc2c(c1)OCCN2Cc1ccc(-c2ccccc2C(=O)O)cc1` [Example 89, 4′-((7-((pyridine-3-ylmethyl)carbamoyl)-2H-benzo[b][1,4]oxazine-4(3H)-yl)methyl)-[1,1′-biphenyl]-2-carboxylic acid] as the compound, how does the “Binding assay (1 μLM)” value read?
Its value is “+”.

With `C[C@H](NC(=O)c1ccc2c(c1)CCCN2Cc1ccc(-c2ccccc2C(=O)O)cc1)c1cccc(OC(F)(F)F)c1` [Example 18, (S)-4′-((6-((1-(3-(trifluoromethoxy)phenyl)ethyl)carbamoyl)-3,4-dihydroquinoline-1(2H)-yl)methyl)-[1,1′-biphenyl]-2-carboxylic acid] as the compound, how does the “Binding assay (1 μLM)” value read?
Its value is “+++”.

`C[C@H](NC(=O)c1ccc2c(c1)CCCN2Cc1cc(-c2ccccc2C(=O)O)ccc1F)c1ccc2ccccc2c1` [Example 137, (S)-4′-fluoro-3′-((6-((1-(naphthalene-2-yl)ethyl)carbamoyl)-3,4-dihydroquinoline-1(2)-yl)methyl)-[1,1′-biphenyl]-2-carboxylic acid] was tested. Which “Binding assay (1 μLM)” value did it give?
The value was “++++”.

For `C[C@H](NC(=O)c1ccc2c(c1)OCCN2Cc1ccccc1-c1ccc(C(=O)O)cc1)c1ccc([N+](=O)[O-])cc1` [Example 146, (S)-2′-((7-((1-(4-nitrophenyl)ethyl)carbamoyl)-2H-benzo[b][1,4]oxazine-4 (3H)-yl)methyl)-[1,1′-biphenyl]-4-carboxylic acid], which “Binding assay (1 μLM)” value is on record?
The value was “+”.

How did the “Binding assay (1 μLM)” value turn out when `C[C@H](NC(=O)c1ccc2c(c1)OCCN2Cc1ccc(-c2ccccc2C(N)=O)cc1)c1cccc(F)c1` [Example 95, (S)-4-((2′-carbamoyl-[1,1′-biphenyl]-4-yl)methyl)-N-(1-(3-fluorophenyl)ethyl)-3,4-dihydro-2H-benzo[b][1,4]oxazine-7-carboxamide] was run?
Its value is “+++”.

With `NC(=O)c1ccccc1-c1ccc(CN2CCOc3cc(C(=O)NCc4ccccc4Br)ccc32)cc1` [Example 101, N-(2-bromobenzyl)-4-((2′-carbamoyl-[1,1′-biphenyl]-4-yl)methyl)-3,4-dihydro-2H-benzo[b][1,4]oxazine-7-carboxamide] as the compound, how does the “Binding assay (1 μLM)” value read?
Its value is “++”.

With `C[C@H](NC(=O)c1ccc2c(c1)OCCN2Cc1ccc(-c2ccccc2C(=O)O)cc1)c1ccc(SC(F)(F)F)cc1` [Example 77, (S)-4′-((7-((1-(4-((trifluoromethyl)thio)phenyl)ethyl)carbamoyl)-2H-benzo[b][1,4]oxazine-4(3H)-yl)methyl)-[1,1′-biphenyl]-2-carboxylic acid] as the compound, how does the “Binding assay (1 μLM)” value read?
The value was “+++”.

Which “Binding assay (1 μLM)” value does the source give for `C[C@H](NC(=O)c1ccc2c(c1)OCCN2Cc1ccc(-c2ccccc2C(=O)O)cc1)c1ccc(Br)cc1` [Example 61, (S)-4′-((7-((1-(4-bromophenyl)ethyl)carbamoyl)-2H-benzo[b][1,4]oxazine-4(3H)-yl)methyl)-[1,1′-biphenyl]-2-carboxylic acid] here?
Its value is “++”.

With `C[C@H](NC(=O)c1ccc2c(c1)OCCN2Cc1ccccc1-c1ccc(C(=O)O)cc1)c1ccc2ccccc2c1` [Example 147, (S)-2′-((7-((1-(naphthalene-2-yl)ethyl)carbamoyl)-2H-benzo[b][1,4]oxazine-4(3H)-yl)methyl)-[1,1′-biphenyl]-4-carboxylic acid] as the compound, how does the “Binding assay (1 μLM)” value read?
Its value is “+++”.
